Test [1] addresses human plasma kallikrein (Homo sapiens (Human), UniProt P03952). Kind of test: Kallikrein inhibition assay (FLINT) utilizing a quenched AMC peptide substrate. Type of test: biochemical. The settings on record: 30 min preincubation, kinetic reads over 30 min, Z-Gly-Pro-Arg-AMC substrate 50 μM; read-out: Kallikrein Kin Inh IC50. The method, boiled down: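 Fluorogenic Z-Gly-Pro-Arg-AMC cleavage (50 μM substrate, 2 nM kallikrein, Tris pH 7.5, CaCl2, BSA, CHAPS, 2% DMSO) read kinetically at 340/440 nm for 30 min after 30-min compound pre-incubation. Compounds in 11-point 3-fold series from 1 μM; percent inhibition fitted to four-parameter equation for IC50.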

Test [2] deals with Factor XIa (Homo sapiens (Human), UniProt P03951). Kind of test: Factor XIa inhibition assay (FLINT) utilizing a fluorophore-quencher pair peptide substrate. Type of test: biochemical. The settings on record: 30 min preincubation, kinetic reads over 30 min, read-out: FXIa Kin Inh IC50. The gist of the method: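 FXIa ([…]) preincubated 30 min with compound (11-point 3-fold dilution, top 100 nM, 2% DMSO), then 15 μM quenched FXI Arg146-based peptide added; Tris pH 7.5, CaCl2, BSA, CHAPS. Fluorescence 485/520 nm read kinetically every 5 min over 30 min at RT; IC50 by 4-parameter fit.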
Sequence of Factor XIa (P03951 388-625): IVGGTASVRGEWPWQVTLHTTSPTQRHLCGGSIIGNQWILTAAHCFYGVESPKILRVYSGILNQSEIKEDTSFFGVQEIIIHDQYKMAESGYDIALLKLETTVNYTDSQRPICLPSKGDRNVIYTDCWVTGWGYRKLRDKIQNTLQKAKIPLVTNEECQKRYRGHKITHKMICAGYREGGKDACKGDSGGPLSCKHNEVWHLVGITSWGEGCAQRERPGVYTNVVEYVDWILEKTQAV
Sequence of Factor XIa (P03951 19-387 partner): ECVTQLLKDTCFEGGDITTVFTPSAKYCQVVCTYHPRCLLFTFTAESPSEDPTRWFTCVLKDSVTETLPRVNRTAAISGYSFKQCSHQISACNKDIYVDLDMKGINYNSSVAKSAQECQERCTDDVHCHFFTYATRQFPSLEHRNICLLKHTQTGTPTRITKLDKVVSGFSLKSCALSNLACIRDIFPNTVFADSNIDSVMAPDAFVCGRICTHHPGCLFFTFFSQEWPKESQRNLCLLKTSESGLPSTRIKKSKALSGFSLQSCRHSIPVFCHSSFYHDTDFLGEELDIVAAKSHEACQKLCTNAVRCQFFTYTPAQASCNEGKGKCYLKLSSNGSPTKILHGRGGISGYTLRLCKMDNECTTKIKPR

[3] abbreviates: 5Fam-KLTRAETV-K5Tamra substrate 15 μM.
Setting [4] is: 5Fam-[…]-K5Tamra substrate 15 μM.

Read-outs that look alike come from different tables or passages of the source.

Sequence of human plasma kallikrein (P03952 391-638): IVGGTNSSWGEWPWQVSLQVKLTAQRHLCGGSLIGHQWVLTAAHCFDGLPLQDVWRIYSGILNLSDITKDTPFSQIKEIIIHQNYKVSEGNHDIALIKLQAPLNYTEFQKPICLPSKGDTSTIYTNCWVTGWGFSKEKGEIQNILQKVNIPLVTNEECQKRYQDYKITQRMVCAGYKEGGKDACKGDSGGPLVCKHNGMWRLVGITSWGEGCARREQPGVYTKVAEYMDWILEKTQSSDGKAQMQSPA
Sequence of human plasma kallikrein (P03952 20-390 partner): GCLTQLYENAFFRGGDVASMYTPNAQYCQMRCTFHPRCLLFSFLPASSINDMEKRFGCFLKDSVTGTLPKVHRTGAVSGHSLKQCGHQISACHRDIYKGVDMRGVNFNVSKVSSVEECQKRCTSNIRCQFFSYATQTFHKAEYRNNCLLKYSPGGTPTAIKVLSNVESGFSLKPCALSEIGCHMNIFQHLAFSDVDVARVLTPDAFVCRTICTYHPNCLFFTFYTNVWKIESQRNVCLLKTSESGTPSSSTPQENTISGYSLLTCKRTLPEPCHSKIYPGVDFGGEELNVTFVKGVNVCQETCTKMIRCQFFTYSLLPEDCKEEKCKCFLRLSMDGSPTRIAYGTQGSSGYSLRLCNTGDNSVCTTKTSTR

Turning to `O=C1C=C(c2c(-n3cnnn3)ccc(Cl)c2F)C[C@H]2CC[C@H](c3nc(F)c(-c4ccnc(-n5cncn5)c4F)[nH]3)N12` (single isomer, unassigned) [Example 92, 7-[3-Chloro-2-fluoro-6-(tetrazol-1-yl)phenyl]-3-[4-fluoro-5-[3-fluoro-2-(1,2,4-triazol-1-yl)-4-pyridyl]-1H-imidazol-2-yl]-2,3,8,8a-tetrahydro-1H-indolizin-5-one], the IC50 (commonly the point on the concentration scale where inhibition reaches its midpoint) in test [1] turned out to be 6 nM; in test [2] (setting [3]), 3.7 nM.

As to `CNc1ccc(-c2cnc([C@@H]3CC[C@@H]4CC(c5cc(Cl)ccc5-n5cnnn5)=CC(=O)N43)[nH]2)c(F)n1` (single isomer, unassigned) [Example 98, (3S*,8aR)-7-(5-chloro-2-(1H-tetrazol-1-yl)phenyl)-3-(5-(2-fluoro-6-(methylamino)pyridin-3-yl)-1H-imidazol-2-yl)-2,3,8,8a-tetrahydroindolizin-5(1H)-one], the IC50 in test [1] turned out to be 9 nM; in test [2] (setting [4]), 0.6 nM.

Regarding `N#CC1CN(c2nccc(-c3cnc([C@@H]4CC[C@@H]5CC(c6c(-n7cnnn7)ccc(Cl)c6F)=CC(=O)N54)[nH]3)c2F)C1` (single isomer, unassigned) [Example 100, 1-(4-(2-((3S*,8aR)-7-(3-chloro-2-fluoro-6-(1H-tetrazol-1-yl)phenyl)-5-oxo-1,2,3,5,8,8a-hexahydroindolizin-3-yl)-1H-imidazol-5-yl)-3-fluoropyridin-2-yl)azetidine-3-carbonitrile], the IC50 is 5.1 nM in test [1] and 1.9 nM in test [2] (setting [4]).

`N#CC1CN(c2nccc(-c3cnc([C@H]4CC[C@@H]5CC(c6c(-n7cnnn7)ccc(Cl)c6F)=CC(=O)N54)[nH]3)c2F)C1` (single isomer, unassigned) [Example 102, 1-(4-(24(3R*,8aR)-7-(3-chloro-2-fluoro-6-(1H-tetrazol-1-yl)phenyl)-5-oxo-1,2,3,5,8,8a-hexahydroindolizin-3-yl)-1H-imidazol-5-yl)-3-fluoropyridin-2-yl)azetidine-3-carbonitrile]: the IC50 came out at 9.6 nM in test [1] and 10.3 nM in test [2] (setting [4]).

With `O=C1C=C(c2c(-n3cnnn3)ccc(Cl)c2F)C[C@H]2CC[C@@H](c3ncc(-c4ccnc(N5CC6(COC6)C5)c4F)[nH]3)N12` (single isomer, unassigned) [Example 108, (3S*,8aR)-7-(3-chloro-2-fluoro-6-(1H-tetrazol-1-yl)phenyl)-3-(5-(3-fluoro-2-(2-oxa-6-azaspiro[3.3]heptan-6-yl)pyridin-4-yl)-1H-imidazol-2-yl)-2,3,8,8a-tetrahydroindolizin-5(1H)-one], the IC50 stood at 5.7 nM in test [1] and 2.9 nM in test [2] (setting [4]).

As for `O=C1C=C(c2c(-n3cnnn3)ccc(Cl)c2F)C[C@H]2CC[C@H](c3nc(F)c(-c4ccnc(C5(O)CC5)c4F)[nH]3)N12` (single isomer, unassigned) [Example 109], the half-maximal inhibitory concentration (IC50) in test [1] was 35.8 nM; in test [2] (setting [3]), 4.8 nM.

In the case of `O=C1C=C(c2c(-n3cnnn3)ccc(Cl)c2F)C[C@H]2CC[C@H](c3ncc(-c4ccnc(N5CCC5)c4F)[nH]3)N12` (single isomer, unassigned) [Example 110, (3*R,8aR)-3-(5-(2-(azetidin-1-yl)-3-fluoropyridin-4-yl)-1H-imidazol-2-yl)-7-(3-chloro-2-fluoro-6-(1H-tetrazol-1-yl)phenyl)-2,3,8,8a-tetrahydroindolizin-5(1H)-one], the figures for the concentration for half-maximal inhibition (IC50) in test [1] and in test [2] (setting [4]) were 6.9 nM and 11 nM, respectively.

Take `O=C1C=C(c2c(-n3cnnn3)ccc(Cl)c2F)C[C@H]2CC[C@@H](c3ncc(-c4ccnc(N5CCC5)c4F)[nH]3)N12` (single isomer, unassigned) [Example 111, (3*S,8aR)-3-(5-(2-(azetidin-1-yl)-3-fluoropyridin-4-yl)-1H-imidazol-2-yl)-7-(3-chloro-2-fluoro-6-(1H-tetrazol-1-yl)phenyl)-2,3,8,8a-tetrahydroindolizin-5(1H)-one]: the IC50 in test [1] came out at 3.8 nM; in test [2] (setting [3]) it was 2.9 nM.

Take `O=C1C=C(c2c(-n3cnnn3)ccc(Cl)c2F)C[C@H]2CC[C@H](c3ncc(-c4ccnc(-n5cncn5)c4F)[nH]3)N12` (single isomer, unassigned) [Example 112, (3*R,8aR)-7-(3-chloro-2-fluoro-6-(1H-tetrazol-1-yl)phenyl)-3-(5-(3-fluoro-2-(1H-1,2,4-triazol-1-yl)pyridin-4-yl)-1H-imidazol-2-yl)-2,3,8,8a-tetrahydroindolizin-5(1H)-one]: the values for the IC50 in test [1] and in test [2] (setting [3]) were 20.6 nM and 9.6 nM, respectively.

Regarding `O=C1C=C(c2c(-n3cnnn3)ccc(Cl)c2F)C[C@H]2CC[C@@H](c3nc(-c4ccnc(-c5ccn[nH]5)c4F)c[nH]3)N12` (single isomer, unassigned) [Example 115, (3S,8a*R)-7-(3-chloro-2-fluoro-6-(1H-tetrazol-1-yl)phenyl)-3-(4-(3-fluoro-2-(1H-pyrazol-5-yl)pyridin-4-yl)-1H-imidazol-2-yl)-2,3,8,8a-tetrahydroindolizin-5(1H)-one], the IC50 in test [1] is 1.9 nM; in test [2] (setting [3]), 1.5 nM.

With `O=C1C=C(c2c(-n3cnnn3)ccc(Cl)c2F)C[C@H]2CC[C@H](c3ncc(-c4ccnc(C5(O)CC5)c4F)[nH]3)N12` (single isomer, unassigned) [Example 116, (3*R,8aR)-7-(3-chloro-2-fluoro-6-(1H-tetrazol-1-yl)phenyl)-3-(5-(3-fluoro-2-(1-hydroxycyclopropyl)pyridin-4-yl)-1H-imidazol-2-yl-4-d)-2,3,8,8a-tetrahydroindolizin-5(1H)-one], the IC50 was determined as 64.4 nM in test [1] and 8.3 nM in test [2] (setting [3]).

On to `O=C1Nc2ccc(-c3cnc([C@@H]4CC[C@@H]5CC(c6c(-n7cnnn7)ccc(Cl)c6F)=CC(=O)N54)[nH]3)c(F)c2CO1` (single isomer, unassigned) [Example 118, 6-(24(3*S,8a*R)-7-(3-chloro-2-fluoro-6-(1H-tetrazol-1-yl)phenyl)-5-oxo-1,2,3,5,8,8a-hexahydroindolizin-3-yl)-1H-imidazol-5-yl)-5-fluoro-1,4-dihydro-2H-benzo[d][1,3]oxazin-2-one], for which the IC50 amounted to 1.7 nM in test [1] and 0.4 nM in test [2] (setting [3]).

As to `Nc1ccc(-c2cnc([C@H]3CC[C@@H]4CC(c5cc(Cl)ccc5-n5cnnn5)=CC(=O)N43)[nH]2)c(F)n1` (single isomer, unassigned) [Example 119, (3*R,8aR)-3-(5-(6-amino-2-fluoropyridin-3-yl-5-d)-1H-imidazol-2-yl)-7-(5-chloro-2-(1H-tetrazol-1-yl)phenyl-3-d)-2,3,8,8a-tetrahydroindolizin-5(1H)-one], the results for the IC50 in test [1] and in test [2] (setting [3]) were 11.7 nM and 0.6 nM, respectively.

For `Nc1ccc(-c2cnc([C@@H]3CC[C@@H]4CC(c5cc(Cl)ccc5-n5cnnn5)=CC(=O)N43)[nH]2)c(F)n1` (single isomer, unassigned) [Example 120, (3*S,8aR)-3-(5-(6-amino-2-fluoropyridin-3-yl-5-d)-1H-imidazol-2-yl)-7-(5-chloro-2-(1H-tetrazol-1-yl)phenyl-3-d)-2,3,8,8a-tetrahydroindolizin-5(1H)-one], the figures for the IC50 in test [1] and in test [2] (setting [3]) were 67.7 nM and 4.5 nM, respectively.

As for `[2H]c1cc(Cl)cc(C2=CC(=O)N3[C@H](CC[C@@H]3c3ncc(-c4ccc(N)nc4F)[nH]3)C2)c1-n1cnnn1` (single isomer, unassigned) [Example 121], the IC50 was 16.9 nM in test [1] and 0.7 nM in test [2] (setting [4]).

Turning to `Nc1ccc(-c2cnc([C@@H]3CC[C@@H]4CC(c5cc(Cl)ccc5-n5cnnn5)=CC(=O)N43)[nH]2)c(F)n1` (single isomer, unassigned) [Example 122, (3*S,8aR)-3-(5-(6-amino-2-fluoropyridin-3-yl)-1H-imidazol-2-yl)-7-(5-chloro-2-(1H-tetrazol-1-yl)phenyl-3-d)-2,3,8,8a-tetrahydroindolizin-5(1H)-one], the results for the IC50 in test [1] and in test [2] (setting [3]) were 53.1 nM and 4 nM, respectively.

Regarding `[2H]c1nc([C@H]2CC[C@]3([2H])CC(c4c(-n5cnnn5)ccc(Cl)c4F)=CC(=O)N23)[nH]c1-c1c(F)nc(N)c([2H])c1[2H]` (single isomer, unassigned) [Example 131, (3R*,8aR*)-3-(5-(6-amino-2-fluoropyridin-3-yl-4,5-d2)-1H-imidazol-2-yl-4-d)-7-(3-chloro-2-fluoro-6-(1H-tetrazol-1-yl)phenyl)-2,3,8,8a-tetrahydroindolizin-5(1H)-one-8a-d], the IC50 was found to be 11.7 nM in test [1] and 0.9 nM in test [2] (setting [4]).

Consider `[2H]c1nc([C@@H]2CC[C@]3([2H])CC(c4c(-n5cnnn5)ccc(Cl)c4F)=CC(=O)N23)[nH]c1-c1c(F)nc(N)c([2H])c1[2H]` (single isomer, unassigned) [Example 132, (3S *,8aR*)-3-(5-(6-amino-2-fluoropyridin-3-yl-4,5-d2)-1H-imidazol-2-yl-4-d)-7-(3-chloro-2-fluoro-6-(1H-tetrazol-1-yl)phenyl)-2,3,8,8a-tetrahydroindolizin-5(1H)-one-8a-d], for which the IC50 in test [1] came to 6.8 nM; in test [2] (setting [4]), 0.4 nM.

`CCN(CCO)c1nccc(-c2cnc([C@@H]3CC[C@H]4CC(c5c(-n6cnnn6)ccc(Cl)c5F)=CC(=O)N43)[nH]2)c1F` (single isomer, unassigned) [Example 135, (3S,8a*S)-7-(3-chloro-2-fluoro-6-(1H-tetrazol-1-yl)phenyl)-3-(5-(2-(ethyl(2-hydroxyethyl)amino)-3-fluoropyridin-4-yl)-1H-imidazol-2-yl)-2,3,8,8a-tetrahydroindolizin-5(1H)-one]: the values for the IC50 in test [1] and in test [2] (setting [3]) were 15.5 nM and 22.5 nM, respectively.

Values taken from patent US20230295157A1, “3-(1H-IMIDAZOL-2-YL)-2,3,8,8A-TETRAHYDROINDOLIZIN-5(1H)-ONE DERIVATIVES USEFUL AS FACTOR XIA INHIBITORS” (JANSSEN PHARMACEUTICA NV, priority 2020, published 2023).
